# Results taken from PubChem BioAssay (NCI).
# Values joined by “and” are separate entries in the source; they are usually repeats but may differ in a detail not shown here. Equal values may be shown once.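 Each compound was tested at five concentrations against cells in 96-well plates for 48 hours. Abbreviation: GI50, concentration required for 50% inhibition of growth. TGI is the concentration that stops growth completely.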
# Experiments:
# Experiment in all cases: inhibition of tumour cell growth, NCI panel, 48 h
# 786-0 renal = system: 786-0 renal
# A498 renal = system: A498 renal
# BT-549 breast = system: BT-549 breast
# EKVX NSCLC = system: EKVX NSCLC
# MDA-MB-231 breast = system: MDA-MB-231 breast
# NCI-H460 lung = system: NCI-H460 lung
# SNB-19 CNS = system: SNB-19 CNS
# SW-620 colon = system: SW-620 colon
# TK-10 renal = system: TK-10 renal
# UACC-62 melanoma = system: UACC-62 melanoma
Compound,GI50 (786-0 renal),TGI (786-0 renal) [µM],GI50 (A498 renal),TGI (A498 renal) [µM],GI50 (BT-549 breast) [µM],TGI (BT-549 breast) [µM],GI50 (EKVX NSCLC),TGI (EKVX NSCLC) [µM],GI50 (MDA-MB-231 breast),TGI (MDA-MB-231 breast),GI50 (NCI-H460 lung) [µM],TGI (NCI-H460 lung) [µM],GI50 (SNB-19 CNS),TGI (SNB-19 CNS),GI50 (SW-620 colon),TGI (SW-620 colon) [µM],GI50 (TK-10 renal),TGI (TK-10 renal) [µM],GI50 (UACC-62 melanoma),TGI (UACC-62 melanoma)
Cc1ncc(C(=O)Nc2ccc(CN3CCN(C)CC3)c(C(F)(F)F)c2)cc1C#Cc1c(N)ncc2ccc(C#N)cc12,1.19 µM,3.06,1.21 µM,4.55,2.71,11.2,0.54 µM,> 22.8,0.161 µM,1.89 µM,4.05,12.1,6.71 µM,15.6 µM,0.661 µM,10.3,3.08 µM,12.2,0.0362 µM,6.1 µM
CCOP1(=O)OCC2OC(n3cnc4c(N)ncnc43)C(O)C2O1 (configuration not stated),,> 100,,> 100,,> 100,,> 100,,> 100 µM,,> 100,,> 100 µM,,> 100,,> 100,,> 100 µM
Cc1c2c(n3c(nc4ccccc43)c1C#N)SCC2,,> 10,,> 10,,> 10,,> 10,,> 10 µM,,> 10,,> 10 µM,,> 10,,> 10,,> 10 µM
CCCCc1ccc2nc(NC(=O)OC)[nH]c2c1,0.0613 µM,29.3,0.04 µM,0.996,0.0707,12.4,0.855 µM,> 100,0.291 µM,> 74.7 µM,0.0378,6.17,0.0487 µM,> 100 µM,0.0325 µM,> 60.5,0.325 µM,29.9,0.0451 µM,> 59.1 µM
Cc1nc2c(cnn2-c2ccnc3c(C(F)(F)F)cccc23)c(=O)o1,> 100 µM,> 100,> 100 µM,> 100,> 100,> 100,> 100 µM,> 100,> 100 µM,> 100 µM,> 100,> 100,> 100 µM,> 100 µM,> 100 µM,> 100,> 100 µM,> 100,93.9 µM,> 100 µM
COC1CC(OC2OC(CO)C(O)C(O)C2O)/C(=C\C#N)C(O)C1OC (configuration not stated),,> 100,,> 100,,> 100,,> 100,,> 100 µM,,> 100,,> 100 µM,,> 100,,> 100,,> 100 µM
C=C1C(=O)O[C@@H]2[C@@H]3O[C@@](C)(CC/C=C(\C)CCC[C@@H]2C)[C@H](O)C[C@@H]13,7.02 µM,20.3,8.87 µM,21.3,1.84,4.46,5.56 µM,20.3,2.39 µM,7.18 µM,,31.6,14.6 µM,28.6 µM,2.03 µM,3.96,1.89 µM,3.46,2.05 µM,5.11 µM
COc1cc(-c2cc(-c3ccc(N(C)C)cc3)nc(N3CCC(O)CC3)c2C#N)cc(OC)c1OC,0.399 µM,> 100,1.19 µM,19.1,0.688,6.8,0.461 µM,> 100,0.392 µM,3.55 µM,0.249,1.9,2.44 µM,23.8 µM,0.448 µM,> 35.6,1.81 µM,15.7,0.277 µM,0.741 µM
Cc1cc(Cl)n2c(nc3ccccc32)c1C#N,0.768 µM,6.48,4.18 µM,17.7,0.473,2.28,7.84 µM,24.8,0.649 µM,4.58 µM,0.6,8.9,2.44 µM,15.6 µM,0.055 µM,1.79,0.898 µM,10.9,1.14 µM,3.66 µM
Cn1cc(-c2ccc3cc(-c4ccc(CC(=O)Nc5cc(C(C)(C)C)nn5C)cc4)cnc3c2)cn1,0.351 µM,> 100,0.0246 µM,0.175,0.262,2.38,0.282 µM,> 100,0.317 µM,> 100 µM,0.165,> 100,0.473 µM,> 100 µM,0.324 µM,> 100,0.492 µM,> 100,0.179 µM,> 100 µM
COc1ccc(C2SC(N)=Nc3c2c(C)nn3C(=O)c2ccncc2)cc1 (configuration not stated),,> 100,,> 100,,> 100,,> 100,,> 100 µM,,> 100,,> 100 µM,,> 100,,> 100,,> 100 µM
Cc1cc(O)c2c(c1)C[C@@H](O)C1=C2C(=O)c2c(O)ccc(OC3CC(O)C(OC4CC(OC5CCC(OC6CC(O)C(OC7CC(OC8CCC(O)C(C)O8)C(O)C(C)O7)C(C)O6)C(C)O5)C(O)C(C)O4)C(C)O3)c2C1=O (some centres not stated),0.49 µM and 0.28 µM,,2.72 µM and 2.47 µM,,,0.49,1.7 µM and 1.37 µM,,0.433 µM and 0.251 µM,0.259 µM and 1.49 µM and 0.549 µM,,0.485,1.41 µM and 1.24 µM,0.335 µM and 2.88 µM and 2.67 µM,0.362 µM and 0.216 µM,,2.13 µM and 2.93 µM,,0.237 µM and 0.315 µM,0.134 µM and 0.658 µM and 1.18 µM
Nc1nc2nc3c(nc2c(=O)[nH]1)CN(c1ccc(C(=O)O)cc1)C3=O,,> 100,,> 100,,> 100,,> 100,,> 100 µM,,> 100,,> 100 µM,,> 100,,> 100,,> 100 µM
Clc1ccc(Cl)c(N/N=C\c2c[nH]c3ccccc23)c1,12.8 µM,25.4,14.5 µM,29.6,0.196,16.9,2.36 µM,15.5,2.05 µM,8.07 µM,> 100,> 100,13.2 µM,29.4 µM,10.3 µM,24.6,12 µM,26.8,9.92 µM,22.6 µM
